Zone of inhibition and Activity data for seven molecules are collected here from ChEMBL document CHEMBL2346657, “Synthesis of novel 2-amino-4-(5'-substituted 2'-phenyl-1H-indol-3'-yl)-6-aryl-4H-pyran-3-carbonitrile derivatives as antimicrobial and antioxidant agents” (2013).

Calls of active or inactive are those of the source. How the calls were made is not given here.

Common to all, as to assay type: functional
Assay [1] deals with Aspergillus niger. The assay can be described thus: Antimicrobial activity against Aspergillus niger MTCC 281 at 750 ug/ml after 72 hrs by cup plate method. The following applies: MTCC 281, 72 h, read-out: IZ.
In assay [2] the test system is Klebsiella pneumoniae. The assay can be described thus: Antimicrobial activity against Klebsiella pneumoniae NCTC 13368 at 750 ug/ml after 24 hrs by cup plate method. The conditions noted are these: NCTC 13368, 24 h, read-out: IZ.
The subject of assay [3] is Aspergillus niger. The assay can be described thus: Antimicrobial activity against Aspergillus niger MTCC 281 at 1000 ug/ml after 72 hrs by cup plate method. The following applies: MTCC 281, 72 h, read-out: IZ.
The subject of assay [4] is Aspergillus niger. The assay can be described thus: Antimicrobial activity against Aspergillus niger MTCC 281 at 500 ug/ml after 72 hrs by cup plate method. The following applies: MTCC 281, 72 h, read-out: IZ.
The test system of assay [5] is Aspergillus oryzae. As to the kind of experiment: Antimicrobial activity against Aspergillus oryzae MTCC 3567 at 1000 ug/ml after 72 hrs by cup plate method. The conditions noted are these: MTCC 3567, 72 h, read-out: IZ.
The test system of assay [6] is Pseudomonas aeruginosa. As to the kind of experiment: Antimicrobial activity against Pseudomonas aeruginosa MTCC 1688 at 1000 ug/ml after 24 hrs by cup plate method. The conditions noted are these: MTCC 1688, 24 h, read-out: IZ.
For assay [7], the system named is Aspergillus flavus. As to the kind of experiment: Antimicrobial activity against Aspergillus flavus MTCC 1973 at 1000 ug/ml after 72 hrs by cup plate method. The following applies: MTCC 1973, 72 h, read-out: IZ.
Assay [8] has as its system Escherichia coli. The assay can be described thus: Antimicrobial activity against Escherichia coli MTCC 723 at 750 ug/ml after 24 hrs by cup plate method. The conditions noted are these: MTCC 723, 24 h, read-out: IZ.
For assay [9], the system named is Aspergillus flavus. As to the kind of experiment: Antimicrobial activity against Aspergillus flavus MTCC 1973 at 500 ug/ml after 72 hrs by cup plate method. The conditions noted are these: MTCC 1973, 72 h, read-out: IZ.
Assay [10] has as its system Escherichia coli. As to the kind of experiment: Antimicrobial activity against Escherichia coli MTCC 723 at 500 ug/ml after 24 hrs by cup plate method. The following applies: MTCC 723, 24 h, read-out: IZ.
In assay [11] the test system is Aspergillus terreus. The assay can be described thus: Antimicrobial activity against Aspergillus terreus MTCC 1782 at 500 ug/ml after 72 hrs by cup plate method. The conditions noted are these: MTCC 1782, 72 h, read-out: IZ.
Assay [12] relates to Pseudomonas aeruginosa. The assay can be described thus: Antimicrobial activity against Pseudomonas aeruginosa MTCC 1688 at 750 ug/ml after 24 hrs by cup plate method. The conditions noted are these: MTCC 1688, 24 h, read-out: IZ.
Assay [13] has as its system Pseudomonas aeruginosa. The assay can be described thus: Antimicrobial activity against Pseudomonas aeruginosa MTCC 1688 at 500 ug/ml after 24 hrs by cup plate method. The conditions noted are these: MTCC 1688, 24 h, read-out: IZ.
Assay [14] concerns Staphylococcus aureus. The assay can be described thus: Antimicrobial activity against Staphylococcus aureus ATCC 29513 at 500 ug/ml after 24 hrs by cup plate method. The conditions noted are these: ATCC 29513, 24 h, read-out: IZ.
Assay [15] has as its system Aspergillus terreus. The assay can be described thus: Antimicrobial activity against Aspergillus terreus MTCC 1782 at 750 ug/ml after 72 hrs by cup plate method. The following applies: MTCC 1782, 72 h, read-out: IZ.
Assay [16] concerns Staphylococcus aureus. The assay can be described thus: Antimicrobial activity against Staphylococcus aureus ATCC 29513 at 1000 ug/ml after 24 hrs by cup plate method. The conditions noted are these: ATCC 29513, 24 h, read-out: IZ.
The test system of assay [17] is Aspergillus terreus. As to the kind of experiment: Antimicrobial activity against Aspergillus terreus MTCC 1782 at 1000 ug/ml after 72 hrs by cup plate method. The conditions noted are these: MTCC 1782, 72 h, read-out: IZ.
A short description of assay [18]: Antioxidant activity assessed as metal chelating activity by measuring inhibition of ferrozine-Fe2+ complex formation at 25 to 100 ug/ml.
Assay [19] has as its system Klebsiella pneumoniae. As to the kind of experiment: Antimicrobial activity against Klebsiella pneumoniae NCTC 13368 at 500 ug/ml after 24 hrs by cup plate method. The conditions noted are these: NCTC 13368, 24 h, read-out: IZ.
Assay [20] relates to Aspergillus oryzae. The assay can be described thus: Antimicrobial activity against Aspergillus oryzae MTCC 3567 at 750 ug/ml after 72 hrs by cup plate method. The conditions noted are these: MTCC 3567, 72 h, read-out: IZ.
Assay [21] deals with Aspergillus flavus. The assay can be described thus: Antimicrobial activity against Aspergillus flavus MTCC 1973 at 750 ug/ml after 72 hrs by cup plate method. The conditions noted are these: MTCC 1973, 72 h, read-out: IZ.
The subject of assay [22] is Escherichia coli. The assay can be described thus: Antimicrobial activity against Escherichia coli MTCC 723 at 1000 ug/ml after 24 hrs by cup plate method. The following applies: MTCC 723, 24 h, read-out: IZ.
In assay [23] the test system is Staphylococcus aureus. As to the kind of experiment: Antimicrobial activity against Staphylococcus aureus ATCC 29513 at 750 ug/ml after 24 hrs by cup plate method. The conditions noted are these: ATCC 29513, 24 h, read-out: IZ.
Assay [24] relates to Aspergillus oryzae. The assay can be described thus: Antimicrobial activity against Aspergillus oryzae MTCC 3567 at 500 ug/ml after 72 hrs by cup plate method. The conditions noted are these: MTCC 3567, 72 h, read-out: IZ.
Assay [25] deals with Klebsiella pneumoniae. The assay can be described thus: Antimicrobial activity against Klebsiella pneumoniae NCTC 13368 at 1000 ug/ml after 24 hrs by cup plate method. The conditions noted are these: NCTC 13368, 24 h, read-out: IZ.

With `Cc1ccc(C2=CC(c3c(-c4ccccc4)[nH]c4ccc(Cl)cc34)C(C#N)=C(N)O2)cc1` (centres undefined), the zone of inhibition at 750 µg/mL in [1] is 3 mm; in assay [2], 10 mm; in assay [8], 10 mm; in assay [12], 6 mm; in assay [15], 3 mm; in assay [20], 8 mm. Moreover, the zone of inhibition at 750 µg/mL in [21] and in [23] was 5 mm in each case. The zone of inhibition at 1000 µg/mL in assay [3] is 3 mm; in assay [5], 2 mm; in assay [6], 3 mm; in [7], 5 mm; in assay [16], 6 mm; in [17], 3 mm. For the same molecule, the zone of inhibition at 1000 µg/mL in assay [22] and in assay [25] was 10 mm each time. Also, the zone of inhibition at 500 µg/mL in assay [4] stood at 4 mm; in assay [9], 5 mm; in assay [10], 10 mm; in assay [11] it was 5 mm; in [13] it was 6 mm; in [14], 8 mm. Besides, the figures for the zone of inhibition at 500 µg/mL in [19] and in assay [24] were 10 mm and 8 mm, respectively. Besides, in assay [18], the result was Active.
Take `Cc1ccc2[nH]c(-c3ccccc3)c(C3C=C(c4ccccc4)Oc4nc5oc(=O)c(C#N)c(N)c5c(N)c43)c2c1` (centres undefined): the zone of inhibition at 750 µg/mL in assay [1] came to 10 mm; in [2], 4 mm; in assay [8], 9 mm; in assay [12], 3 mm; in assay [15] it was 4 mm; in assay [20], 8 mm. The zone of inhibition at 750 µg/mL in [21] was 0 mm; in [23], 8 mm. Further, the zone of inhibition at 1000 µg/mL in assay [3] amounted to 10 mm; in [5], 8 mm; in [6], 0 mm; in assay [16], 4 mm; in [17] it was 4 mm; in assay [22], 5 mm. Also, the zone of inhibition at 1000 µg/mL in assay [25] was 4 mm. Moreover, the zone of inhibition at 500 µg/mL came out at 10 mm in assay [4]; 5 mm in assay [9]; 10 mm in [10]; 9 mm in assay [11]; 3 mm in assay [13]; 9 mm in [14]. Also, the zone of inhibition at 500 µg/mL in assay [19] is 4 mm; in assay [24], 11 mm. In addition, the result in assay [18] was Active.
`CN[C@@H]1[C@H](O[C@H]2[C@H](O[C@H]3[C@H](O)[C@@H](O)[C@H](N=C(N)N)[C@@H](O)[C@@H]3N=C(N)N)O[C@@H](C)[C@]2(O)C=O)O[C@@H](CO)[C@H](O)[C@H]1O` [STREPTOMYCIN]: the zone of inhibition at 750 µg/mL was found to be 14 mm in assay [2], 14 mm in assay [8], 13 mm in [12] and 15 mm in [23]. The zone of inhibition at 1000 µg/mL in assay [6] was determined as 14 mm; in [16] it was 15 mm; in assay [22] it was 15 mm; in assay [25], 14 mm. For the same molecule, the zone of inhibition at 500 µg/mL in [10] stood at 14 mm; in [13], 13 mm; in assay [14] it was 15 mm; in assay [19] it was 14 mm.
On to `N#CC1=C(N)OC(c2ccc(Cl)cc2)=CC1c1c(-c2ccccc2)[nH]c2ccccc12` (centres undefined), for which the zone of inhibition at 750 µg/mL in assay [1] was found to be 6 mm; in assay [2], 2 mm; in assay [8], 5 mm; in assay [12], 8 mm; in [15] it was 13 mm; in assay [20], 9 mm. Moreover, the zone of inhibition at 750 µg/mL in [23] came to 10 mm. In addition, the zone of inhibition at 1000 µg/mL was 5 mm in assay [3]; 3 mm in assay [5]; 8 mm in [6]; 2 mm in [7]; 10 mm in assay [16]; 13 mm in assay [17]. Further, the zone of inhibition at 1000 µg/mL in [22] was determined as 3 mm; in assay [25], 2 mm. Further, the zone of inhibition at 500 µg/mL was 8 mm in assay [4]; 5 mm in [10]; 12 mm in assay [11]; 10 mm in assay [13]; 10 mm in assay [14]; 2 mm in [19]. Also, the zone of inhibition at 500 µg/mL in [24] worked out at 9 mm. Besides, in [18], the outcome was Active.
In the case of `N#Cc1c(N)c2c(N)c3c(nc2oc1=O)OC(c1ccccc1)=CC3c1c(-c2ccccc2)[nH]c2ccccc12` (centres undefined), the zone of inhibition at 750 µg/mL in assay [1] came out at 3 mm; in [2] it was 11 mm; in [8], 8 mm; in [12] it was 7 mm; in assay [15] it was 5 mm; in assay [20], 11 mm. Also, the values for the zone of inhibition at 750 µg/mL in assay [21] and in [23] were 3 mm and 10 mm, respectively. The zone of inhibition at 1000 µg/mL stood at 10 mm in assay [3]; 11 mm in assay [5]; 3 mm in [6]; 9 mm in assay [16]; 5 mm in [17]; 10 mm in assay [22]. For the same molecule, the zone of inhibition at 1000 µg/mL in assay [25] is 10 mm. Further, the zone of inhibition at 500 µg/mL amounted to 5 mm in [4]; 5 mm in [9]; 8 mm in assay [10]; 5 mm in [11]; 5 mm in assay [13]; 10 mm in assay [14]. For the same molecule, the zone of inhibition at 500 µg/mL in assay [19] and in [24] was 11 mm in each case. The result in [18] was Active.
`N#Cc1c(N)c2c(N)c3c(nc2oc1=O)OC(c1ccccc1)=CC3c1c(-c2ccccc2)[nH]c2ccc(Cl)cc12` (centres undefined): the zone of inhibition at 750 µg/mL in assay [1] is 9 mm; in assay [2], 5 mm; in [8], 10 mm; in [12], 8 mm; in assay [15], 3 mm; in assay [20], 12 mm. Moreover, the zone of inhibition at 750 µg/mL in assay [21] came to 3 mm; in [23], 13 mm. For the same molecule, the zone of inhibition at 1000 µg/mL in assay [3] turned out to be 10 mm; in assay [5], 13 mm; in assay [6], 5 mm; in assay [16], 14 mm; in assay [17], 3 mm; in assay [22], 8 mm. The zone of inhibition at 1000 µg/mL in assay [25] was found to be 5 mm. Besides, the zone of inhibition at 500 µg/mL in assay [4] was determined as 9 mm; in assay [9], 5 mm; in [10], 10 mm; in assay [11], 3 mm; in [13] it was 9 mm; in assay [14], 13 mm. Also, the zone of inhibition at 500 µg/mL in [19] turned out to be 5 mm; in assay [24], 12 mm. The outcome in assay [18] was Active.
As to `OC(Cn1cncn1)(Cn1cncn1)c1ccc(F)cc1F` [FLUCONAZOLE], the zone of inhibition at 750 µg/mL is 13 mm in assay [1], 14 mm in [15], 14 mm in assay [20] and 13 mm in assay [21]. Besides, the zone of inhibition at 1000 µg/mL in assay [3], in [5], in [7] and in assay [17] was 14 mm throughout. The zone of inhibition at 500 µg/mL in assay [4], in assay [9], in assay [11] and in assay [24] was 13 mm each time.
